In PubChem BioAssay AID330 (DTP/NCI, 2004):
Inconclusive results and toxic doses are left out. Rule for the calls: active = survival T/C of 150% or more; inactive = T/C below 125% in these data.

Test system: P388 leukemia ip, CD2F1 mice, survival T/C
Experiment: NCI In Vivo Anticancer Drug Screen. Data for tumor model P388 Leukemia (intraperitoneal) in CD2F1 (CDF1) mice
Details: endpoint: median survival time, higher = longer survival
In short: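 Mice carrying the transplanted tumor received test compound or vehicle. Survival was recorded in each group, and the value is the treated-group measurement divided by that of the vehicle-treated control group.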

[1] = dose: 50.0 mg/kg/injection, schedule: Q01DX005 (ip), vehicle: saline with Tween-80
[2] = dose: 100.0 mg/kg/injection, schedule: Q01DX001 (ip), vehicle: saline with Tween-80
[3] = dose: 200.0 mg/kg/injection, schedule: Q01DX001 (ip), vehicle: saline with Tween-80
[4] = dose: 400.0 mg/kg/injection, schedule: Q01DX001 (ip), vehicle: saline with Tween-80
[5] = dose: 60.0 mg/kg/injection, schedule: Q01DX005 (ip), vehicle: Klucel (hydroxypropylcellulose) (HPC)
[6] = dose: 120.0 mg/kg/injection, schedule: Q01DX005 (ip), vehicle: Klucel (hydroxypropylcellulose) (HPC)
[7] = dose: 240.0 mg/kg/injection, schedule: Q01DX005 (ip), vehicle: Klucel (hydroxypropylcellulose) (HPC)
[8] = dose: 25.0 mg/kg/injection, schedule: Q01DX009 (ip), vehicle: saline with Tween-80
[9] = dose: 50.0 mg/kg/injection, schedule: Q01DX009 (ip), vehicle: saline with Tween-80
[10] = dose: 100.0 mg/kg/injection, schedule: Q01DX009 (ip), vehicle: saline with Tween-80
[11] = dose: 50.0 mg/kg/injection, schedule: Q01DX005 (ip), vehicle: Klucel (hydroxypropylcellulose) (HPC)
[12] = dose: 100.0 mg/kg/injection, schedule: Q01DX005 (ip), vehicle: Klucel (hydroxypropylcellulose) (HPC)
[13] = dose: 200.0 mg/kg/injection, schedule: Q01DX005 (ip), vehicle: Klucel (hydroxypropylcellulose) (HPC)

Measured: T/C

COc1cc(CC2C(CO)OC(=O)C2C(O)c2ccc3c(c2)OCO3)cc(OC)c1OC (configuration not stated)
inactive: dose: 5.0 mg/kg/injection, schedule: Q04DX002 (ip), vehicle: saline with Tween-80 104 % of control | dose: 10.0 mg/kg/injection, schedule: Q04DX002 (ip), vehicle: saline with Tween-80 104 % of control | dose: 20.0 mg/kg/injection, schedule: Q04DX002 (ip), vehicle: saline with Tween-80 102 % of control

Oc1ccc(N=C2N=c3c(c4ccccc4c4ccccc34)=N2)c2ccccc12
inactive: dose: 25.0 mg/kg/injection, schedule: Q01DX005 (ip), vehicle: saline with Tween-80 98 % of control | [1] 100 % of control | dose: 100.0 mg/kg/injection, schedule: Q01DX005 (ip), vehicle: saline with Tween-80 100 % of control | dose: 200.0 mg/kg/injection, schedule: Q01DX005 (ip), vehicle: saline with Tween-80 107 % of control

CC1=CC(=O)C(O)C2(C)C1CC1OC(=O)C(OC3OC(CO)C(O)C(O)C3O)C3C(C)C(O)C4(O)OCC13C42 (configuration not stated)
inactive: dose: 0.25 mg/kg/injection, schedule: Q01DX005 (ip), vehicle: water 101 % of control | dose: 0.5 mg/kg/injection, schedule: Q01DX005 (ip), vehicle: water 102 % of control

Cc1cccc(-c2cc3ccccc3c(Cl)n2)n1
inactive: [2] 104 % of control | [3] 100 % of control | [4] 91 % of control

OC(CCC(O)(C(F)(F)F)C(F)(F)F)(C(F)(F)F)C(F)(F)F
inactive: dose: 6.25 mg/kg/injection, schedule: Q01DX005 (ip), vehicle: saline 99 % of control | dose: 12.5 mg/kg/injection, schedule: Q01DX005 (ip), vehicle: saline 101 % of control | dose: 25.0 mg/kg/injection, schedule: Q01DX005 (ip), vehicle: saline 100 % of control | [1] 103 % of control

C/C1=C\CC(O)/C(C)=C/CC2=CCC(C(C)C)C2(C)CC1 (configuration not stated)
inactive: dose: 4.0 mg/kg/injection, schedule: Q01DX009 (ip), vehicle: Klucel (hydroxypropylcellulose) (HPC) 101 % of control | dose: 8.0 mg/kg/injection, schedule: Q01DX009 (ip), vehicle: Klucel (hydroxypropylcellulose) (HPC) 101 % of control | dose: 16.0 mg/kg/injection, schedule: Q01DX009 (ip), vehicle: Klucel (hydroxypropylcellulose) (HPC) 102 % of control | dose: 32.0 mg/kg/injection, schedule: Q01DX009 (ip), vehicle: Klucel (hydroxypropylcellulose) (HPC) 102 % of control

OCC(Br)(Br)Br
inactive: [2] 100 % of control | [3] 98 % of control | [4] 100 % of control

CC(O)Cc1c(N)n2c(nc3ccccc32)[nH]c1=O (configuration not stated)
inactive: [5] 102 % of control | [6] 97 % of control | [7] 92 % of control

Cc1ncc(CCl)n1Cc1ccccc1
inactive: dose: 15.0 mg/kg/injection, schedule: Q01DX005 (ip), vehicle: saline 105 % of control | dose: 30.0 mg/kg/injection, schedule: Q01DX005 (ip), vehicle: saline 106 % of control | dose: 60.0 mg/kg/injection, schedule: Q01DX005 (ip), vehicle: saline 99 % of control

Cn1c(-c2ccccc2)nc(-c2ccccc2)[n+]1[O-]
inactive: [5] 102 % of control | [6] 96 % of control | [7] 95 % of control

O=C(NC(C(=O)O)C1CC(Cl)=NO1)OCc1ccc([N+](=O)[O-])cc1 (configuration not stated)
inactive: dose: 6.2 mg/kg/injection, schedule: Q04DX003 (ip), vehicle: other 108 % of control | dose: 12.5 mg/kg/injection, schedule: Q04DX003 (ip), vehicle: other 117 % of control

CC([NH-])C(=O)O.CC([NH-])C(=O)O.[Cu+2] (configuration not stated)
inactive: dose: 12.5 mg/kg/injection, schedule: Q01DX009 (ip), vehicle: Klucel (hydroxypropylcellulose) (HPC) 99 % of control

O=c1ccc(N=Nc2cccc([N+](=O)[O-])c2)ccc1O
inactive: [8] 107 % of control | [9] 104 % of control | [10] 104 % of control

CC(C)=C1CC(C)(C)N2CCCC12 (configuration not stated)
inactive: [11] 100 % of control

CCOC(=O)N1CCC23C=C(OC)C(=O)C=C2C1CC1=C3C(=O)C(OC)=CC1=O (configuration not stated)
inactive: dose: 100.0 mg/kg/injection, schedule: Q01DX001 (ip), vehicle: saline 101 % of control | dose: 200.0 mg/kg/injection, schedule: Q01DX001 (ip), vehicle: saline 97 % of control | dose: 400.0 mg/kg/injection, schedule: Q01DX001 (ip), vehicle: saline 105 % of control

C=CCCC(=O)CCCC(=O)O[C@@H]1[C@@H]2[C@H](CC1(C)C)[C@H](O)[C@@]13O[C@@H]1[C@H](O)[C@@]1(CO1)[C@@]23C
inactive: dose: 6.2 micrograms/kg/injection, schedule: Q01DX009 (ip), vehicle: saline + alcohol 98 % of control | dose: 6.3 micrograms/kg/injection, schedule: Q01DX009 (ip), vehicle: Klucel (hydroxypropylcellulose) (HPC) 110 % of control | dose: 12.5 micrograms/kg/injection, schedule: Q01DX009 (ip), vehicle: Klucel (hydroxypropylcellulose) (HPC) 110 % of control | dose: 12.5 micrograms/kg/injection, schedule: Q01DX009 (ip), vehicle: saline + alcohol 101 % of control | dose: 25.0 micrograms/kg/injection, schedule: Q01DX005 (ip), vehicle: Klucel (hydroxypropylcellulose) (HPC) 100 % of control | dose: 25.0 micrograms/kg/injection, schedule: Q01DX009 (ip), vehicle: Klucel (hydroxypropylcellulose) (HPC) 100 % of control | dose: 25.0 micrograms/kg/injection, schedule: Q01DX009 (ip), vehicle: saline + alcohol 98 % of control | dose: 50.0 micrograms/kg/injection, schedule: Q01DX005 (ip), vehicle: Klucel (hydroxypropylcellulose) (HPC) 101 % of control | dose: 50.0 micrograms/kg/injection, schedule: Q01DX009 (ip), vehicle: Klucel (hydroxypropylcellulose) (HPC) 98 % of control | dose: 50.0 micrograms/kg/injection, schedule: Q01DX009 (ip), vehicle: saline + alcohol 97 % of control | dose: 100.0 micrograms/kg/injection, schedule: Q01DX005 (ip), vehicle: Klucel (hydroxypropylcellulose) (HPC) 99 % of control | dose: 200.0 micrograms/kg/injection, schedule: Q01DX005 (ip), vehicle: Klucel (hydroxypropylcellulose) (HPC) 100 % of control | dose: 400.0 micrograms/kg/injection, schedule: Q01DX005 (ip), vehicle: Klucel (hydroxypropylcellulose) (HPC) 111 % of control

S=C(S)N1CCCCC1
inactive: dose: 3.13 mg/kg/injection, schedule: Q01DX009 (ip), vehicle: saline 88 % of control | dose: 6.25 mg/kg/injection, schedule: Q01DX009 (ip), vehicle: saline 91 % of control | dose: 12.5 mg/kg/injection, schedule: Q01DX009 (ip), vehicle: saline 86 % of control | [8] 91 % of control | dose: 25.0 mg/kg/injection, schedule: Q01DX009 (ip), vehicle: saline 86 % of control

COc1ccc(OC)c(C2N(Cc3ccccc3N(C)C)CCCN2Cc2ccccc2N(C)C)c1
inactive: dose: 50.0 mg/kg/injection, schedule: Q04DX003 (ip), vehicle: saline with Tween-80 91 % of control | dose: 100.0 mg/kg/injection, schedule: Q04DX003 (ip), vehicle: saline with Tween-80 87 % of control

Cc1cc(=O)[nH]c2nc3ccccc3n12
inactive: [9] 95 % of control | [10] 96 % of control | dose: 200.0 mg/kg/injection, schedule: Q01DX009 (ip), vehicle: saline with Tween-80 100 % of control | dose: 400.0 mg/kg/injection, schedule: Q01DX009 (ip), vehicle: saline with Tween-80 104 % of control

Oc1ccccc1C=Nc1c(Cl)cc(Cl)cc1Cl
inactive: [11] 105 % of control | [12] 109 % of control | [13] 107 % of control

CCC(O)Cn1cnc2c(N)ncnc21 (configuration not stated)
inactive: [11] 99 % of control | [12] 99 % of control | [13] 100 % of control
